The values below come from patent publication US6579856B2, “Inhibition of stress activated protein kinase (SAPK) pathway and sensitization of cells to cancer therapies” (priority 1997, dated 2003).

Changes are numbered by the printed parent chain. In names and notes the source's numbering stands. Where two headings read alike, the source gives them in different places.

What all share (format): cell-based
The test system of one data set is T98G cells. Put plainly: PCR-stop assay of cisplatin-DNA adduct formation and repair. The source says:
The PCR-stop assay was used to quantitate cisplatin-DNA adduct formation and subsequent repair (Horton et al., Nucl. Acids. Res. 23:3810-3815 (1995), which is incorporated herein by reference). The assay is based on the observation that the efficiency of amplification of cisplatin-treated DNA is inversely proportional to the degree of platination. […] DNA was amplified quantitatively to produce a 2.7 kb product of the hypoxanthine phosphoribosyl transferase (HPRT) gene and a 0.15 kb nested fragment of the HPRT gene using ^32P-end labeled primers: 5′-[…]-3′(5′ primer; SEQ ID NO: 3) and 5′-[…]-3′ (3′ primer; SEQ ID NO: 4), for the 2.7 kb product; 5′-[…]-3′(5′ nested primer; SEQ ID NO: 5) and the above 3′ primer (SEQ ID NO: 4) for the 0.15 kb product. The 0.15 kb product contains undetectable levels of DNA damage under the present conditions and serves as an internal PCR control and as the basis for normalization of the amount of amplification of the 2.7 kb product. The number of lesions per 2.7 kb product was calculated as […] (cpm damaged DNA/cpm undamaged DNA).
As a control, […], which inhibits DNA repair by inhibiting ADP-ribosylation, was added with cisplatin.

The test system of another data set is T98G glioblastoma cells. Put plainly: Cell viability (MTS method), T98G cells. The settings on record: for IC50: 1 hr exposure, viability 5 days later, read-out: IC-50 for cisplatin. As for the experimental part: (§1) Cell viability was determined using the MTS method (Promega Corp.; Madison Wis.), measuring the […] of the formazan product 1 hr after adding the MTS (Gjerset et al., Mol. Carcin. 14:275-285 (1995), which is incorporated herein by reference). Cells were seeded into 96 well plates. After 24 hr, various concentrations of cisplatin or transplatin was added and incubation was continued for 1 hr. Medium was then removed and replaced with fresh medium and cell viability was determined 5 days later. Experiments were performed in quadruplicate; cell viability is expressed as the ratio of the viable cells following treatment to viable untreated cells.
The IC-50 for cisplatin was determined using the T98G cells that express dn-jun, control T98G cells and T98G cells stably transfected with the corresponding empty vector. […] In comparison, expression of dn-jun in T98G cells decreased the IC-50 to 21 μM, which represents a 7-fold increase in sensitivity.

Data set [1] has as its system PC3 prostate carcinoma cells. Put plainly: Cell viability, PC3 cells. The settings on record: for IC50: read-out: IC-50 (cisplatin). As for the experimental part:
as §1
PC3 prostate carcinoma cells were genetically modified to express dn-jun or a second dominant negative c-jun, Tam-67, both of which were under control of the metallothionein promoter (Brown et al., Oncogene 9:791-799 (1994), which is incorporated herein by reference).

The subject of another data set is SAPK (JNK). Put plainly: SAPK (JNK) assay in T98G cells. The settings on record: for increase in SAPK (JNK) activity: T98G cells incubated with 250, 500 or 1000 μM for 1 hr. The protocol: T98G glioblastoma cells were maintained in Dulbecco's modified minimal medium containing 5% fetal calf serum. SAPK (JNK) assays were performed as described by Hibi et al. (supra, 1993). c-jun and dn-jun expression were quantitated using the methods and antibodies described by Grover-Bardwick et al. (Carcinogenesis 15:1667-1674 (1994), which is incorporated herein by reference).
Cisplatin, but not transplatin, forms covalent crosslinks between adjacent guanine or guanine-adenine residues. […] As a control, UV-C irradiation was performed and similarly produced a dose-dependent increase in SAPK activity.

The subject of a further data set is AP-1. Put plainly: Basal AP-1 activity in dn-jun transfected T98G cells. The settings on record: T98G cells stably expressing dn-jun. From the text:
(§2) T98G cells were stably transfected with a cDNA encoding the dn-jun (Smeal et al., supra, 1991; Smeal et al., supra, 1992) and clonal lines were obtained. Expression of dn-jun had no effect on basal AP-1 activity or on the enzyme activity of SAPK. In contrast, dn-jun expression inhibited phosphorylation-dependent activation of transcription.

Data set [2] has as its system phosphorylation-dependent activation of transcription. Put plainly: Phosphorylation-dependent activation of transcription in dn-jun transfected T98G cells. The settings on record: T98G cells stably expressing dn-jun.
Excerpt: as §2

Data set [3] has as its system U87 human glioblastoma cells. Put plainly: Cell viability, U87 cells. The settings on record: U87 cells expressing dn-jun vs parental U87 cells. As for the experimental part:
as §1
(§3) In other experiments, U87 human glioblastoma cells and MCF-7 breast cancer cells were stably transfected with the vector expressing dn-jun and clonal lines were isolated.

Data set [4] concerns MCF-7 breast cancer cells. Put plainly: Cell viability, MCF-7 cells. The settings on record: MCF-7 cells expressing dn-jun vs parental cells. The protocol: as §1, §3
Setting [5] is: ABZ added with cisplatin, 6 hr recovery period.

With `Nc1ccc(-c2ccc(N)cc2N)cc1` [ABZ, 2-aminobenzidine], in the data set with T98G cells (setting [5]), the DNA repair entry was “no repair was observed” and the “level of DNA damage” value was “substantially increased”.

As to `N.N.[Cl][Pt][Cl]` [cisplatin], the IC50 with T98G glioblastoma cells (T98G cells expressing dn-jun) was 21 µM; with T98G glioblastoma cells (control (untransfected) T98G cells), 147 µM; in data set [1] (PC3 cells expressing dn-jun), 18 µM; in data set [1] (control PC3 cells), 109 µM. For the same molecule, in the data set with T98G cells (DNA isolated immediately after 1 hr treatment with 0, 100 or 200 μM), the DNA damage entry is reported as “increasing levels of DNA damage”. Also, the “increase in SAPK (JNK) activity” value in the data set with SAPK (JNK) is recorded as “up to 10 fold”.

As to `N.N.[Cl][Pt+2][Cl]` [transplatin], the “increase in SAPK (JNK) activity” value in the data set on SAPK (JNK) was “no effect was observed”.

B1: dn-jun: dominant negative mutant of c-jun containing alanine-63 and alanine-73 substitutions; cannot be phosphorylated by SAPK (protein, UniProt P05412 1-331, looked up, variant S63A S73A)
Transcription factor Jun: MTAKMETTFYDDALNASFLPSESGPYGYSNPKILKQSMTLNLADPVGSLKPHLRAKNSDLLTAPDVGLLKLAAPELERLIIQSSNGHITTTPTPTQFLCPKNVTDEQEGFAEGFVRALAELHSQNTLPSVTSAAQPVNGAGMVAPAVASVAGGSGSGGFSASLHSEPPVYANLSNFNPGALSSGGGAPSYGAAGLAFPAQPQQQQQPPHHLPQQMPVQHPRLQALKEEPQTVPEMPGETPPLSPIDMESQERIKAERKRMRNRIAASKCRKRKLERIARLEEKVKTLKAQNSELASTANMLREQVAQLKQKVMNHVNSGCQLMLTQQLQTF
With B1, the “basal AP-1 activity” value in the data set with AP-1 is listed as “no effect”. Moreover, the “phosphorylation-dependent activation of transcription” value in data set [2] is on record as “inhibited”. Moreover, the “increased sensitivity to cisplatin” value in data set [1] (PC3 cells expressing dn-jun vs control cells) was “greater than 7 fold”; in data set [1] (PC3 cells expressing dn-jun vs vector control cells) it was “greater than 9 fold”; in data set [3], 2.5 fold; in data set [4], 3 fold. Further, the “enzyme activity of SAPK” value with SAPK (JNK) (T98G cells stably expressing dn-jun) is recorded as “no effect”.

B2: c-jun: c-jun transcription factor, the SAPK substrate, with increased expression in T98G cells (protein, UniProt P05412 1-331, looked up)
Transcription factor Jun: B1 Transcription factor Jun with A63S, A73S
For the molecule B2, the “viability of cells to cisplatin exposure” value in the data set with T98G glioblastoma cells (increased expression of c-jun in T98G cells) was “somewhat increased”.
